This is an account of results in patent publication US10011607B2, “Ethynyl derivatives” (Hoffmann-La Roche Inc., priority 2015, dated 2018).

The test addresses human mGlu4 receptor (Homo sapiens (Human), UniProt Q14833). Kind of test: Ca2+ mobilization in vitro assay on recombinant human mGlu4 expressed in HEK293 cells (PAM). It counts as cell-based. As to conditions: for Emax: HEK293, maximal response in % of maximal stimulatory effect of saturating L-AP4, read-out: Eff. (%); for EC50: HEK293 cells, human mGlu4, in presence of EC20 of L-AP4, read-out: EC50 (nM) mGlu4PAM. The source says: FIG. 1: Illustrates the experimental outline for mGlu4 PAM Ca^2+ mobilization screening assay and the determination of EC50 and % Emax values. […] A depression of the signal observed after addition of the EC20 concentration of L-AP4 was indicative of an inhibitory activity of the test compound.
Determination of EC50 Values Using a Ca2+ Mobilization In Vitro Assay on Recombinant Human mGlu4 Expressed in HEK293 Cells:
A monoclonal HEK-293 cell line stably transfected with a cDNA encoding for the human mGlu4 receptor was generated; for the work with mGlu4 Positive Allosteric Modulators (PAMs), a cell line with low receptor expression levels and low constitutive receptor activity was selected to allow the differentiation of agonistic versus PAM activity. Cells were cultured according to standard protocols (Freshney, 2000) in Dulbecco's Modified Eagle Medium with high glucose supplemented with 1 mM glutamine, 10% (vol/vol) heat-inactivated bovine calf serum, Penicillin/Streptomycin, 50 μg/ml hygromycin and 15 μg/ml blasticidin (all cell culture reagents and antibiotics from Invitrogen, Basel, Switzerland).
About 24 hrs before an experiment, 5×10^4 cells/well were seeded in poly-D-lysine coated, black/clear-bottomed 96-well plates. The cells were loaded with 2.5 μM Fluo-4AM in loading buffer (1×HBSS, 20 mM HEPES) for 1 hr at 37° C. and washed five times with loading buffer. The cells were transferred into a Functional Drug Screening System 7000 (Hamamatsu, Paris, France), and 11 half logarithmic serial dilutions of test compound at 37° C. were added and the cells were incubated for 10-30 min. with on-line recording of fluorescence. Following this pre-incubation step, the agonist (2S)-2-amino-4-phosphonobutanoic acid (L-AP4) was added to the cells at a concentration corresponding to EC20 with on-line recording of fluorescence; in order to account for day-to-day variations in the responsiveness of cells, the EC20 of L-AP4 was determined immediately ahead of each experiment by recording of a full dose-response curve of L-AP4.
Responses were measured as peak increase in fluorescence minus basal (i.e. fluorescence without addition of L-AP4), normalized to the maximal stimulatory effect obtained with saturating concentrations of L-AP4. Graphs were plotted with the % maximal stimulatory using XLfit, a curve fitting program that iteratively plots the data using Levenburg Marquardt algorithm. The single site competition analysis equation used was y=A+((B−A)/(1+((x/C)D))), where y is the % maximal stimulatory effect, A is the minimum y, B is the maximum y, C is the EC50, x is the log 10 of the concentration of the competing compound and D is the slope of the curve (the Hill Coefficient). From these curves the EC50 (drug concentration at which 50% of the maximal receptor activation was achieved), the Hill coefficient as well as the maximal response in % of the maximal stimulatory effect obtained with saturating concentrations of L-AP4 were calculated (see FIG. 1).

SMILES strings stand for the structures.

Sequence of human mGlu4 receptor (Q14833 33-912): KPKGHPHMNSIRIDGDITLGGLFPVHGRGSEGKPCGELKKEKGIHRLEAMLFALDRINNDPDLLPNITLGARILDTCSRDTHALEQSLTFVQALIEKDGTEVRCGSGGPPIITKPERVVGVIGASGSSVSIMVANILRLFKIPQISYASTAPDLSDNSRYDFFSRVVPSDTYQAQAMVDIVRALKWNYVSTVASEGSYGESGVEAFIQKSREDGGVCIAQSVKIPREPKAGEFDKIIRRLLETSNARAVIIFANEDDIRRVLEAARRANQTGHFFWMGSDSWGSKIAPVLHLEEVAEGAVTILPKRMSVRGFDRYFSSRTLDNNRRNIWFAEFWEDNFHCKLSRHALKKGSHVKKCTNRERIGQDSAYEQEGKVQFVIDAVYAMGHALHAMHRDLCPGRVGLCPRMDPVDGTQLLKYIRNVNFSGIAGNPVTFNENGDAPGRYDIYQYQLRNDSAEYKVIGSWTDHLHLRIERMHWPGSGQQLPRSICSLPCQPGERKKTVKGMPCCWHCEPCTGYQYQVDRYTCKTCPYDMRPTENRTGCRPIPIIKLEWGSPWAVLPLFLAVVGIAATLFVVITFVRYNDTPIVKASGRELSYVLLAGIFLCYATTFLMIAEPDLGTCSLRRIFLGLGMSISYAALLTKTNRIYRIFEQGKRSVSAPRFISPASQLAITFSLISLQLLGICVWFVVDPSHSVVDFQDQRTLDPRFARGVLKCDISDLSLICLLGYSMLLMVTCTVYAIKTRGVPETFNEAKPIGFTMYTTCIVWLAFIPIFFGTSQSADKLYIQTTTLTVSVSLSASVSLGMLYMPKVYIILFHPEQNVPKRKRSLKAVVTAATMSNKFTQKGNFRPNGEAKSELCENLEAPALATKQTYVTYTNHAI

For `CC12CC(=O)N(c3c(F)cc(C#Cc4ccccc4)cc3Cl)C(=O)N1CCN(c1cccnc1)C2=O` (racemic) [Example 74, (9aRS)-7-[2-chloro-6-fluoro-4-(2-phenylethynyl)phenyl]-9a-methyl-2-(3-pyridyl)-4,9-dihydro-3H-pyrazino[1,2-c]pyrimidine-1,6,8-trione], the Emax came to 120% and the EC50 came to 102 nM.
On the same counts, the results for `CC12CC(=O)N(c3c(F)cc(C#Cc4ccccc4)cc3Cl)C(=O)N1CCN(c1ccncc1)C2=O` (racemic) [Example 75, (9aRS)-7-[2-chloro-6-fluoro-4-(2-phenylethynyl)phenyl]-9a-methyl-2-(4-pyridyl)-4,9-dihydro-3H-pyrazino[1,2-c]pyrimidine-1,6,8-trione] are 128% and 210 nM.
In the same order, the values of `CC12CC(=O)N(c3c(F)cc(C#Cc4ccccc4)cc3Cl)C(=O)N1CCN(c1ccccn1)C2=O` (racemic) [Example 76, (9aRS)-7-[2-chloro-6-fluoro-4-(2-phenylethynyl)phenyl]-9a-methyl-2-(2-pyridyl)-4,9-dihydro-3H-pyrazino[1,2-c]pyrimidine-1,6,8-trione] are 150% and 128 nM.
Turning to `Cn1cc(N2CCN3C(=O)N(c4c(F)cc(C#Cc5ccccc5)cc4Cl)C(=O)CC3(C)C2=O)cn1` (racemic) [Example 77, (9aRS)-7-[2-chloro-6-fluoro-4-(2-phenylethynyl)phenyl]-9a-methyl-2-(1-methylpyrazol-4-yl)-4,9-dihydro-3H-pyrazino[1,2-c]pyrimidine-1,6,8-trione], the Emax was 111% and the EC50 stood at 104 nM.
In the same order, the values of `Cc1cccc(CN2CCN3C(=O)N(c4c(F)cc(C#Cc5ccccc5)cc4F)C(=O)CC3(C)C2=O)c1` (racemic) [Example 83, (9aRS)-7-[2,6-difluoro-4-(2-phenylethynyl)phenyl]-9a-methyl-2-(m-tolylmethyl)-4,9-dihydro-3H-pyrazino[1,2-c]pyrimidine-1,6,8-trione] are 79% and 173 nM.
As to `Cc1ccc(CN2CCN3C(=O)N(c4c(F)cc(C#Cc5ccccc5)cc4F)C(=O)CC3(C)C2=O)cc1` (racemic) [Example 84, (9aRS)-7-[2,6-difluoro-4-(2-phenylethynyl)phenyl]-9a-methyl-2-(p-tolylmethyl)-4,9-dihydro-3H-pyrazino[1,2-c]pyrimidine-1,6,8-trione], the Emax came out at 87% and the EC50 was 117 nM.
On the same counts, the results for `Cc1ccccc1CN1CCN2C(=O)N(c3c(F)cc(C#Cc4ccccc4)cc3F)C(=O)CC2(C)C1=O` (racemic) [Example 85, (9aRS)-7-[2,6-difluoro-4-(2-phenylethynyl)phenyl]-9a-methyl-2-(o-tolylmethyl)-4,9-dihydro-3H-pyrazino[1,2-c]pyrimidine-1,6,8-trione] are 83% and 205 nM.
On the same counts, the results for `Cc1cccc(C)c1CN1CCN2C(=O)N(c3c(F)cc(C#Cc4ccccc4)cc3F)C(=O)CC2(C)C1=O` (racemic) [Example 86, (9aRS)-7-[2,6-difluoro-4-(2-phenylethynyl)phenyl]-2-[(2,6-dimethylphenyl)methyl]-9a-methyl-4,9-dihydro-3H-pyrazino[1,2-c]pyrimidine-1,6,8-trione] are 118% and 68 nM.
In the same order, the values of `CC12CC(=O)N(c3c(F)cc(C#Cc4ccccc4)cc3F)C(=O)N1CCN(Cc1ccccc1Cl)C2=O` (racemic) [Example 87, (9aRS)-2-[(2-chlorophenyl)methyl]-7-[2,6-difluoro-4-(2-phenylethynyl)phenyl]-9a-methyl-4,9-dihydro-3H-pyrazino[1,2-c]pyrimidine-1,6,8-trione] are 131% and 87 nM.
For the compound `CC12CC(=O)N(c3c(F)cc(C#Cc4ccccc4)cc3F)C(=O)N1CCN(Cc1cccc(Cl)c1)C2=O` (racemic) [Example 88, (9aRS)-2-[(3-chlorophenyl)methyl]-7-[2,6-difluoro-4-(2-phenylethynyl)phenyl]-9a-methyl-4,9-dihydro-3H-pyrazino[1,2-c]pyrimidine-1,6,8-trione], the Emax was found to be 134% and the concentration for a half-maximal effect (EC50) was found to be 73 nM.
On the same counts, the results for `CC12CC(=O)N(c3c(F)cc(C#Cc4ccccc4)cc3F)C(=O)N1CCN(Cc1ccccn1)C2=O` (racemic) [Example 92, (9aRS)-7-[2,6-difluoro-4-(2-phenylethynyl)phenyl]-9a-methyl-2-(2-pyridylmethyl)-4,9-dihydro-3H-pyrazino[1,2-c]pyrimidine-1,6,8-trione] are 91% and 198 nM.
In the same order, the values of `CC12CC(=O)N(c3c(F)cc(C#Cc4ccccc4)cc3F)C(=O)N1CCN(Cc1cccnc1)C2=O` (racemic) [Example 93, (9aRS)-7-[2,6-difluoro-4-(2-phenylethynyl)phenyl]-9a-methyl-2-(3-pyridylmethyl)-4,9-dihydro-3H-pyrazino[1,2-c]pyrimidine-1,6,8-trione] are 90% and 217 nM.
With `CC12CC(=O)N(c3c(F)cc(C#Cc4ccccc4)cc3F)C(=O)N1CCN(Cc1ccncc1)C2=O` (racemic) [Example 94, (9aRS)-7-[2,6-difluoro-4-(2-phenylethynyl)phenyl]-9a-methyl-2-(4-pyridylmethyl)-4,9-dihydro-3H-pyrazino[1,2-c]pyrimidine-1,6,8-trione], the Emax was 84% and the EC50 is 127 nM.
On the same counts, the results for `CC12CC(=O)N(c3c(F)cc(C#Cc4ccccc4)cc3F)C(=O)N1CCN(Cc1ccncn1)C2=O` (racemic) [Example 95, (9aRS)-7-[2,6-difluoro-4-(2-phenylethynyl)phenyl]-9a-methyl-2-(pyrimidin-4-ylmethyl)-4,9-dihydro-3H-pyrazino[1,2-c]pyrimidine-1,6,8-trione] are 96% and 142 nM.
Turning to `Cn1cc(CN2CCN3C(=O)N(c4c(F)cc(C#Cc5ccccc5)cc4F)C(=O)CC3(C)C2=O)cn1` (racemic) [Example 96, (9aRS)-7-[2,6-difluoro-4-(2-phenylethynyl)phenyl]-9a-methyl-2-[(1-methylpyrazol-4-yl)methyl]-4,9-dihydro-3H-pyrazino[1,2-c]pyrimidine-1,6,8-trione], the Emax was determined as 151% and the EC50 was found to be 214 nM.
On the same counts, the results for `COCC12CC(=O)N(c3c(F)cc(C#Cc4ccccc4)cc3F)C(=O)N1CCN(c1cccnc1)C2=O` (racemic) [Example 102, (9aRS)-7-[2,6-difluoro-4-(2-phenylethynyl)phenyl]-9a-(methoxymethyl)-2-(3-pyridyl)-4,9-dihydro-3H-pyrazino[1,2-c]pyrimidine-1,6,8-trione] are 136% and 129 nM.
On the same counts, the results for `COCC12CC(=O)N(c3c(F)cc(C#Cc4ccccc4)cc3F)C(=O)N1CCN(c1cnn(C)c1)C2=O` (racemic) [Example 104, (9aRS)-7-[2,6-difluoro-4-(2-phenylethynyl)phenyl]-9a-(methoxymethyl)-2-(1-methylpyrazol-4-yl)-4,9-dihydro-3H-pyrazino[1,2-c]pyrimidine-1,6,8-trione] are 148% and 273 nM.
